Laboratory results as given in patent US7741484B2, “Process for synthesis of phenoxy diaminopyrimidine derivatives” (Roche Palo Alto LLC, priority 2005, dated 2010).

Target: T1, rat P2X3 receptor (Rattus norvegicus, UniProt P49654)
T1 construct: expressed in transfected cells; host or cells: CHO-K1
T1 sequence (P49654 1-397): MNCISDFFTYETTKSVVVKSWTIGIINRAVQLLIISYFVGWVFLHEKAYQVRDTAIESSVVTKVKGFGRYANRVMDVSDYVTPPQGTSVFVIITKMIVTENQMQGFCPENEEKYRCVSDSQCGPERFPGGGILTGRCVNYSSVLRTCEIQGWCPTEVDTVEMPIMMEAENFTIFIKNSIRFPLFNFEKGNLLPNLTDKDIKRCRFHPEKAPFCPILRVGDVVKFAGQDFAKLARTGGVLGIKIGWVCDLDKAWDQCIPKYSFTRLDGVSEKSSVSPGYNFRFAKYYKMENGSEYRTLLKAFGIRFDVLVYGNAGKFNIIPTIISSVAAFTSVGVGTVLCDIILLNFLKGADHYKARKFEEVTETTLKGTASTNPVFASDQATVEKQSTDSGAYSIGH
Experiment: P2X3 FLIPR (Fluorometric Imaging Plate Reader) assay, inhibition of α,β-meATP-evoked calcium fluorescence
Assay type: cell-based
Conditions: CHO-K1 cells transfected with cloned rat P2X3; agonist α,β-meATP 1 μM; Fluo-3 AM; read-out: pIC50 for the P2X3 receptor (converted)
Protocol: CHO-K1 cells were transfected with cloned rat P2X3 or human P2X2/3 receptor subunits and passaged in flasks. 18-24 hours before the FLIPR experiment, cells were released from their flasks, centrifuged, and resuspended in nutrient medium at 2.5×10^5 cells/ml. The cells were aliquoted into black-walled 96-well plates at a density of 50,000 cells/well and incubated overnight in 5% CO2 at 37° C. On the day of the experiment, cells were washed in FLIPR buffer (calcium- and magnesium-free Hank's balanced salt solution, 10 mM HEPES, 2 mM CaCl2, 2.5 mM probenecid; FB). Each well received 100 μl FB and 100 μl of the fluorescent dye Fluo-3 AM [2 μM final conc.]. […]
Test compounds (dissolved in DMSO at 10 mM and serially diluted with FB) or vehicle were added to each well (25 μl of a 4× solution) and allowed to equilibrate for 20 minutes at room temperature. The plates were then placed in the FLIPR and a baseline fluorescence measurement (excitation at 488 nm and emission at 510-570 nm) was obtained for 10 seconds before a 100 μl/well agonist or vehicle addition. […] Fluorescence was measured for an additional 2 minutes at 1 second intervals after agonist addition. A final addition of ionomycin (5 μM, final concentration) was made to each well of the FLIPR test plate to establish cell viability and maximum fluorescence of dye-bound cytosolic calcium. […]

COc1cc(C(C)C)c(Oc2cnc(N)nc2N)cc1I [5-(5-Iodo-2-isopropyl-4-methoxy-phenoxy)-pyrimidine-2,4-diamine]
IC50: ~0.01 µM
